Molecules are shown by their SMILES.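 Tested at 5 concentrations; 48 h exposure; 96-well plates; endpoints linearly interpolated, else capped at highest concentration. GI50 = concentration required for 50% inhibition of growth.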 Activity calls are given as the source filed them. Cut-off read from the data, not from the text of the source: active = GI50 up to about 1.1 µM and inactive = higher. Where only a bound is given, the exact number is not on record here.

What all share (test): NCI-60 cell line screen, 48 h
Assay [1] has as its system A549.
The subject of assay [2] is SF-268.
The test system of assay [3] is UACC-62.
In assay [4] the test system is BT-549.
In assay [5] the test system is DU-145.
The subject of assay [6] is T47D.
Assay [7] deals with SK-OV-3.
The subject of assay [8] is PC-3.
The test system of assay [9] is COLO 205.
Assay [10] has as its system MDA-N.
Assay [11] relates to ACHN.
The test system of assay [12] is U-251.
Assay [13] relates to UO-31.
The subject of assay [14] is OVCAR-4.
The test system of assay [15] is NCI/ADR-RES.
Assay [16] deals with RPMI-8226.
In assay [17] the test system is LOX IMVI.
In assay [18] the test system is EKVX.
For assay [19], the system named is HCC 2998.

For `CC1(C)CC2(C)CC1CC2(O)c1ccccc1` (stereo unspecified), the GI50 in [1], in assay [2], in [3], in assay [4], in assay [5] and in [6] was > 100 µM (inactive) in each case. In addition, the GI50 in assay [7], in assay [8], in [9], in [10], in [11] and in [12] was > 100 µM (inactive) in each case. Further, the GI50 in [13] and in [14] was > 100 µM (inactive) in each case.
`CC(=O)OCC1OC(Sc2nc(-c3ccc(C)cc3)c(C#N)c(=O)n2C2OC(COC(C)=O)C(OC(C)=O)C(OC(C)=O)C2OC(C)=O)C(OC(C)=O)C(OC(C)=O)C1OC(C)=O` (stereo unspecified): the GI50 in [1], in assay [15], in assay [2], in assay [3], in assay [4] and in assay [5] was > 100 µM (inactive) each time. For the same molecule, the GI50 in assay [6], in assay [16], in assay [17], in assay [7], in assay [8] and in assay [11] was > 100 µM (inactive) in each case. In addition, the GI50 in [12], in [18] and in assay [13] was > 100 µM (inactive) in each case.
As for `C=CCNC(=O)N1CC(C)C(=O)Nc2ccccc21` (stereo unspecified), the GI50 in [1], in [19], in assay [2], in [4], in assay [5] and in assay [6] was > 100 µM (inactive) throughout. Also, the GI50 in assay [16], in assay [17], in assay [7], in assay [8], in [9] and in assay [10] was > 100 µM (inactive) throughout. Also, the GI50 in assay [11], in [12], in [18], in assay [13] and in assay [14] was > 100 µM (inactive) in each case.
For the molecule `CC(C)=Cc1cc(CCC/C(C)=C/Cc2c(O)cc(C)c(C(=O)O)c2O)co1`, the GI50 in [1], in assay [19], in assay [15], in assay [2], in assay [3] and in assay [4] was > 100 µM (inactive) in each case. The GI50 was > 100 µM (inactive) in [5]; 67.1 µM (inactive) in assay [6]; 26.1 µM (inactive) in assay [16]; 86.9 µM (inactive) in assay [17]; > 100 µM (inactive) in assay [8]; > 100 µM (inactive) in assay [9]. Also, the GI50 in assay [11], in assay [12], in [18], in assay [13] and in assay [14] was > 100 µM (inactive) each time.
Regarding `O=C1C(c2c(O)[nH]c3ccc(F)cc23)=Nc2ccccc21`, the GI50 in assay [1] is > 100 µM (inactive); in assay [19] it was > 100 µM (inactive); in assay [15], > 100 µM (inactive); in assay [2], 15.1 µM (inactive); in assay [3], > 100 µM (inactive); in assay [4], > 100 µM (inactive). The GI50 in assay [5] is > 100 µM (inactive); in assay [16], > 100 µM (inactive); in assay [17], > 100 µM (inactive); in assay [7], 6.24 µM (inactive); in assay [8], > 100 µM (inactive); in assay [9] it was > 100 µM (inactive). Besides, the GI50 is > 100 µM (inactive) in [10]; > 100 µM (inactive) in assay [11]; 13.3 µM (inactive) in [12]; > 100 µM (inactive) in assay [18]; > 100 µM (inactive) in [13].
Consider `CCCCn1c(N)c(-c2nc3ccccc3o2)sc1=S`, for which the GI50 in assay [1] is 13.6 µM (inactive); in [19] it was 36.1 µM (inactive); in assay [15] it was 18.2 µM (inactive); in assay [2], 16.4 µM (inactive); in [3], 11.2 µM (inactive); in [4], 26.3 µM (inactive). Further, the GI50 is 12.4 µM (inactive) in assay [5]; 19.3 µM (inactive) in assay [6]; 21.7 µM (inactive) in [16]; 22.7 µM (inactive) in assay [7]; 23.4 µM (inactive) in [8]; 29.4 µM (inactive) in assay [9]. Moreover, the GI50 was 15.6 µM (inactive) in [10]; 10.3 µM (inactive) in assay [11]; 15.9 µM (inactive) in assay [12]; 21.8 µM (inactive) in assay [18]; 20 µM (inactive) in assay [13]; 5.81 µM (inactive) in assay [14].
As for `COC(=O)C1CCC(=S)N1C(=O)c1ccccc1` (stereo unspecified), the GI50 in assay [1] is > 100 µM (inactive); in assay [19], 77.6 µM (inactive); in assay [15] it was > 100 µM (inactive); in assay [2], > 100 µM (inactive); in assay [3] it was > 100 µM (inactive); in assay [4] it was > 100 µM (inactive). Further, the GI50 in assay [5], in assay [6], in [16], in [7], in [8] and in [9] was > 100 µM (inactive) in each case. Besides, the GI50 in [10] is > 100 µM (inactive); in assay [11] it was > 100 µM (inactive); in assay [12], > 100 µM (inactive); in [18], 87.3 µM (inactive); in assay [13] it was > 100 µM (inactive); in assay [14], > 100 µM (inactive).
For the molecule `Cc1nc2c(c(N3CCN(C)CC3)n1)Cc1ccccc1-2`, the GI50 in assay [1] was 44.2 µM (inactive); in assay [15], 49.5 µM (inactive); in assay [2], 62.4 µM (inactive); in assay [3], 42.6 µM (inactive); in assay [4], 24.3 µM (inactive); in [5], > 100 µM (inactive). In addition, the GI50 in assay [6] is > 100 µM (inactive); in assay [16] it was > 100 µM (inactive); in [7] it was > 100 µM (inactive); in assay [8], 58.7 µM (inactive); in assay [9], 37.3 µM (inactive); in [10], 58.5 µM (inactive). Also, the GI50 is 34.2 µM (inactive) in assay [11], 75.3 µM (inactive) in assay [12], 42.4 µM (inactive) in assay [18] and 15 µM (inactive) in [13].
On to `COc1ccc(C2CC(c3c(O)ccc4ccccc34)=NN2C(C)=O)cc1OC` (stereo unspecified), for which the GI50 in assay [1] is 24.9 µM (inactive); in [19], 23.7 µM (inactive); in assay [15], 26.5 µM (inactive); in [2] it was 31.4 µM (inactive); in assay [3], 15.1 µM (inactive); in assay [4] it was 17 µM (inactive). Besides, the GI50 in [5] is 36.2 µM (inactive); in assay [6] it was 34.6 µM (inactive); in assay [16], 12 µM (inactive); in assay [7] it was 57.8 µM (inactive); in [8], 23.6 µM (inactive); in [9] it was 17 µM (inactive). The GI50 in [10] is 20.7 µM (inactive); in [11] it was 35.4 µM (inactive); in [12] it was 29.6 µM (inactive); in assay [13], 23.1 µM (inactive); in assay [14] it was 44.3 µM (inactive).
For `ClCCN(CCCl)c1ccc(/C=N/Nc2ccnc3ccccc23)cc1`, the GI50 was 1.63 µM (inactive) in [1]; 3.26 µM (inactive) in [19]; 1.9 µM (inactive) in [15]; 2.65 µM (inactive) in assay [2]; 1.75 µM (inactive) in assay [3]; 2 µM (inactive) in assay [4]. Also, the GI50 in assay [5] is 1.8 µM (inactive); in assay [6], 1.76 µM (inactive); in [16] it was 1.32 µM (inactive); in [17], 1.44 µM (inactive); in assay [7], 1.58 µM (inactive); in assay [8], 1.45 µM (inactive). Also, the GI50 in [9] was 1.86 µM (inactive); in assay [11] it was 1.84 µM (inactive); in assay [12] it was 1.48 µM (inactive); in assay [18] it was 2.39 µM (inactive); in assay [13] it was 1.86 µM (inactive); in assay [14] it was 1.85 µM (inactive).
In the case of `O=Cc1c(C(=O)O)[nH]c(=O)[nH]c1=O`, the GI50 in assay [1], in assay [15], in assay [2], in assay [3], in assay [4] and in assay [5] was > 100 µM (inactive) each time. For the same molecule, the GI50 in [16], in [17], in assay [7], in assay [8], in [9] and in [10] was > 100 µM (inactive) each time. The GI50 in assay [11], in [12], in assay [18] and in assay [13] was > 100 µM (inactive) each time.
`N[C@@H]1CCN(c2c(F)cc3c(=O)c(C(=O)O)cn4c3c2Oc2c-4ccc3c2ccc2ccccc23)C1`: the GI50 was 2.39 µM (inactive) in assay [1]; 0.494 µM (active) in assay [19]; 23.2 µM (inactive) in [15]; 5.73 µM (inactive) in assay [2]; 2.79 µM (inactive) in [3]; > 100 µM (inactive) in assay [4]. In addition, the GI50 in assay [5] is 3.81 µM (inactive); in assay [16] it was 0.396 µM (active); in [17], 1.68 µM (inactive); in assay [7], 7.46 µM (inactive); in [8], 2.82 µM (inactive); in assay [9], 2.99 µM (inactive). The GI50 was 1.55 µM (inactive) in assay [10]; 0.305 µM (active) in [11]; 0.571 µM (active) in assay [12]; 0.857 µM (active) in assay [18]; 3.24 µM (inactive) in assay [13]; 1.17 µM (inactive) in assay [14].

The values are drawn from ChEMBL document CHEMBL1201862, “PubChem BioAssay data set” (2004).
